Assay [1] addresses cathepsin D isolated from the human liver (Homo sapiens (Human), UniProt P07339). In words: In-vitro fluorescence assay for identification of cathepsin D inhibitors. Type of assay: biochemical. The settings on record: cathepsin D 1.4 nM, pH 5.5; read-out: CatD assay IC50-. As to the method: In order to identify modulators of cathepsin D activity, a continuous enzymatic test was carried out with a synthetic peptide which carries a fluorescent group (MCA=(7-methoxycoumarin-4-yl)acetyl) which is quenched by energy transfer from a Dpn (2,4 dinitrophenyl) group on the same molecule, in Greiner 384-well nb microtitre plates. Cleavage of the peptidic substrate by cathepsin D causes an increase in the fluorescence intensity. In order to determine the efficacy of substances, the time-dependent increase in the fluorescence intensity in the presence of the substance was compared with the time-dependent increase in fluorescence in the absence of substances. The reference substance used was pepstatin A (Sigma-Aldrich). The substrate used was […](Dnp)d-R—NH2 (Enzo Life Sciences, Lörrach). The enzyme employed was cathepsin D isolated from the human liver (Sigma-Aldrich) in a final concentration of 1.4 nM. The test was carried out in 100 mM sodium acetate buffer, 1.25% (v/v) of DMSO, 0.25% (w/v) of Chaps, pH 5.5. 2 μl of each substance solution with serially diluted substance concentration were added to in each case 4 μl of cathepsin D solution and incubated at room temperature for 10 min. The reaction was started by addition of 2 μl of substrate solution (final concentration 5 μM). After carrying out a starting-point fluorescence measurement (excitation wavelength 340 nm/emission wavelength 450 nm) using an Envision multilabel reader (Perkin Elmer), the reaction was incubated at room temperature for 60 min. The amount of peptide fragment cleaved off during the reaction time was subsequently measured by determination of the increase in the fluorescence intensity at 450 nm (excitation wavelength 340 nm).

Assay [2] concerns bovine explants. In words: Cartilage explant assay (pH-induced cartilage degradation, GAG liberation). Type of assay: cell-based. The settings on record: Bos taurus, 72 h, pH 5.5, 3 days. An excerpt:
In order to investigate the effect of potential cathepsin D inhibitors on cartilage degradation, a pH-induced model based on bovine explants is used. The pH of the medium in which the explants are cultivated is matched here to the pathophysiological pH of an arthrotic knee. This pH is pH 5.5. In this ex vivo model, potential cathepsin D inhibitors are subsequently investigated for their action with respect to stopping of the cartilage degradation process. If the cartilage is destroyed, glycosaminoglycans (GAGs) are released into the cell culture supernatant. The amount of GAGs liberated can be determined quantitatively with the aid of DMMB (dimethylmethylene blue hydrochloride). If sulfated GAGs are detected using dimethylmethylene blue hydrochloride, the decrease in the absorption at 633 nm is utilised. […] In order to determine the concentration, a calibration line is also recorded using chondroitin sulfate.
The bovine explants are firstly prepared. The induction of the cartilage degradation is carried out in 96-multiwell plates. One explant is cultivated per well. In each case, 200 μl of DMEM (incubation medium pH 5.5) without FBS+30 μg/ml of ascorbic acid are added. Thus negative control, explants (n=4) are incubated at pH 7.4 (without FBS). This control is not included in the calculation of the data, but instead ensures that the pH change has the desired effect on the liberation of GAG. At this point, the substances to be tested are added. No preincubation of the explants is carried out. The explants are cultivated with the corresponding substances for 3 days in the incubator at 37° C. and 7.5% CO2.
In order to investigate the effect of cathepsin D inhibitors on the liberation of GAG (glycosaminoglycan), the substances are employed in the desired concentration and cultivated for 3 days. The compounds to be tested are tested in a first experiment in a concentration of 1 μM and 1% of DMSO. Substances which have an effect of >50% on the liberation of GAG (this corresponds to <50% of the control in the Assay Explorer) are tested in the next experiment at 100 nM and 1% of DMSO. Substances which have an effect of >50% on the liberation of GAG under these conditions (this corresponds to <50% of the control in the Assay Explorer) are tested in a concentration/effect relationship. The compounds here are investigated in the following concentrations: 30 μM, 10 μM, 3 μM, 1 μM, […], 0.1 μM, 0.03 μM, 0.01 μM.
The positive control used is pepstatin A with a concentration of 0.01 μM. The assay window is defined by the control (pH 5.5), defined as 0% effect, and the control pH 5.5+0.01 μM pepstatin A, defined as 100% effect. After incubation for 3 days, the cell culture supernatants are collected and stored at −20° C. or measured directly. The amount of liberated GAG is measured photometrically.
The effect (1 value) of the respective substance in % based on the positive control (pH 5.5+0.01 μM pepstatin A) and the negative control (pH 5.5) is reported for concentrations of 1 μM and 100 nM. The value represents the average of 4 replicants. In the determination of a concentration/effect relationship, an IC50 value is reported to the database (Assay Explorer).
The cell culture supernatants (200 μl) are either measured directly or stored at −20° C. In order to ensure an accurate determination of the concentration (μg/ml of GAG in the supernatant) of GAG, the measurement values must be located in the linear region of the standard curve. In order to ensure this, various dilutions are routinely introduced (1/5, 1/10, 1/20, 1/40). The dilutions are prepared with medium and introduced automatically (Hamilton) into a 384-well plate (15 μl). 60 μl of DMMB solution are likewise added automatically (or using a multichannel pipette). A rapid colour reaction occurs, which is subsequently measured at 633 nm using a plate reader (for example Envision).

Assay [3] has as its target recombinant human renin (Homo sapiens (Human), UniProt P00797). In words: In-vitro fluorescence assay for identification of renin-inhibitory activity. Type of assay: biochemical. Particulars: recombinant human renin 10 nM, pH 7.2; read-out: Renin selectivity IC50. As to the method:
In order to identify modulators of renin activity, a continuous enzymatic test was carried out with a synthetic peptide which carries a fluorescent group Edans (=(5-(aminoethyl)aminonaphthalenesulfonate) which is quenched by energy transfer from a Dabcyl (4′-dimethylaminoazobenzene-4-carboxylate) group on the same molecule, in Greiner 384-well microtitre plates. Cleavage of the peptidic substrate by renin causes an increase in the fluorescence intensity. In order to determine the efficacy of substances, the time-dependent increase in the fluorescence intensity in the presence of the substance was compared with the time-dependent increase in fluorescence in the absence of substances. The reference substance used was renin inhibitor 2 (Z-Arg-Arg-Pro-Phe-His-Sta-Ile-His N-Boc-Lys methyl ester Z) (Sigma-Aldrich). The substrate used was renin FRET substrate I (DABCYL-g-Abu-[…]EDANS) (Anaspec, Fremont Calif.). The enzyme employed was recombinant human renin (Proteos, Kalamazoo, Mich.) in a final concentration of 10 nM. The test was carried out in 50 mM Mops buffer, 1.5% (v/v) of DMSO, 0.1% (w/v) of Igepal®, pH 7.2, 0.5% (w/v) of BSA. 2 μl of each substance solution with serially diluted substance concentration were added to in each case 4 μl of renin solution and incubated at room temperature for 15 min. The reaction was started by addition of 4 μl of substrate solution (final concentration 5 μM). After carrying out a starting-point fluorescence measurement (excitation wavelength 340 nm/emission wavelength 495 nm) using an Envision multilabel reader (Perkin Elmer), the reaction was incubated at 37° C. for 60 min. The amount of peptide fragment cleaved off during the reaction time was subsequently measured by determination of the increase in the fluorescence intensity at 495 nm (excitation wavelength 340 nm).

Numbered stars: 1 amine (or outer) side, 2 acyl side, 3 side chain; on linkers, the order of the positions; unused ones are H or OH. Square brackets hold non-standard residues; d marks the D form. Peptide text beside a SMILES is read from it. * marks the point of attachment. X1 = N[C@@H](CC(=O)[*:2])[C@H](Cc1ccccc1)N[*:1]; Abu = CC[C@H](N)C(=O)O; Boc = CC(C)(C)OC(=O)*

Chain of recombinant human renin (P00797 67-406): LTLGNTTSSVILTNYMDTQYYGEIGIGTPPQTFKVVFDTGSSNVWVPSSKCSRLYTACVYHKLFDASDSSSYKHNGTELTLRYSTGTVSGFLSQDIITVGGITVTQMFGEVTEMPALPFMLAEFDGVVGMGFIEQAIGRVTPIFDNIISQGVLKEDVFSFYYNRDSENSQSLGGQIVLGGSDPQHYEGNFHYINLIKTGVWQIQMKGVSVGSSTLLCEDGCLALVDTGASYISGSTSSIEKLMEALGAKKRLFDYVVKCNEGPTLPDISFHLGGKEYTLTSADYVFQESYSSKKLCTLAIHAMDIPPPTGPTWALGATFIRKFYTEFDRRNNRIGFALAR
Chain of cathepsin D isolated from the human liver (P07339 65-161): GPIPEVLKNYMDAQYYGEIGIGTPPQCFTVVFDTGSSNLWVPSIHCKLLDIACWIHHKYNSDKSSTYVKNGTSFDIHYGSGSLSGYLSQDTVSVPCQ
Chain of cathepsin D isolated from the human liver (P07339 169-412): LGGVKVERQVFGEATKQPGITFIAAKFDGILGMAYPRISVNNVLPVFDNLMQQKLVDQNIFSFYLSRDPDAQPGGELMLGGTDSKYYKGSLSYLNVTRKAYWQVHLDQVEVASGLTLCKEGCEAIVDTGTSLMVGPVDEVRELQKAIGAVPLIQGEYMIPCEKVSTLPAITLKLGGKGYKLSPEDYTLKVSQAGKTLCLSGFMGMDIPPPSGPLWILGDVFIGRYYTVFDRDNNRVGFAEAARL

With `CC[C@H](C)[C@H](NC(=O)C[C@H](N)[C@H](Cc1ccccc1)NC(=O)[C@@H](NC(=O)Cc1cccc(OC(F)(F)F)c1)[C@@H](C)CC)C(=O)N[C@H](C(=O)O)C(C)C` [Compound 37, (S)-2-[(2S,3S)-2-((3S,4S)-3-Amino-4-{(1S,4S)-3-methyl-2-[2-(3-trifluoromethoxy-phenyl)acetylamino]pentanoylamino}-5-phenylpentanoylamino)-3-methylpentanoylamino]-3-methylbutyric acid], the IC50 in assay [1] was 3.2 nM; in assay [2] it was 8.2 nM; in assay [3] it was above 30000 nM.

As to `CC[C@H](NC(=O)[C@H](CC(C)C)NC(=O)OC(C)(C)C)C(=O)N[C@@H](Cc1ccccc1)[C@@H](N)CC(=O)N[C@H](C(=O)N[C@H](C(=O)OC)C(C)C)[C@@H](C)CC` [Compound 1, Methyl (S)-2-((2S,3S)-2-{(3S,4S)-3-amino-4-[(S)-2-((S)-2-tert-butoxycarbonylamino-4-methylpentanoylamino)butyrylamino]-5-phenylpentanoylamino}-3-methylpentanoylamino)-3-methylbutyrate] (Boc-L[Abu][X1]IV-OMe), the IC50 was 40 nM in assay [1] and 3.13 nM in assay [2].

Consider `CC[C@H](C)[C@H](NC(=O)C[C@H](N)[C@H](Cc1ccccc1)NC(=O)[C@@H](NC(=O)[C@H](CC(C)C)NC(=O)CC(C)C)C(C)C)C(=O)Nc1cccnc1` [Compound 25, N-[(1S,2S)-2-Methyl-1-(pyridin-3-yl-carbamoyl)butyl]-(S)-3-amino-4-{(S)-(S)-3-methyl-2-[(S)-4-methyl-2-(3-methylbutyryl-amino)pentanoylamino]butyrylamino}-5-phenylpentanamide], for which the IC50 was 520 nM in assay [1], 27.5 nM in assay [2] and above 30000 nM in assay [3].

For the molecule `CC[C@H](C)[C@H](NC(=O)C[C@H](N)[C@H](Cc1ccccc1)NC(=O)[C@@H](NC(=O)CCc1ccccc1)C(C)C)C(=O)N[C@H](C(=O)OC)C(C)C` [Compound 17, Methyl (S)-2-((2S,3S)-2-{(3S,4S)-3-amino-4-[(S)-3-methyl-2-(3-phenylpropionylamino)butyrylamino]-5-phenylpentanoylamino}-3-methylpentanoylamino)-3-methyl-butyrate], the IC50 in assay [2] is 55.2 nM.

Take `CC[C@H](C)[C@H](NC(=O)C[C@H](N)[C@H](Cc1ccccc1)NC(=O)[C@@H](NC(=O)Cc1cccc(OC(F)(F)F)c1)C(C)C)C(=O)NCCC(C)C` [Compound 36, N-[(1S,2S)-2-Methyl-1-(3-methylbutyl-carbamoyl)butyl]-(S)-3-(S)-amino-4-{(S)-3-methyl-2-[2-(3-trifluoromethoxyphenyl)-acetylamino]butyrylamino}-5-phenyl-penlanamide]: the IC50 in assay [1] was 28 nM; in assay [2] it was 13.8 nM; in assay [3], above 30000 nM.

As to `CC[C@H](NC(=O)[C@H](CC(C)C)NC(=O)CC(C)C)C(=O)N[C@@H](Cc1ccccc1)[C@@H](N)CC(=O)NCCc1ccc2c(c1)OCO2` [Compound 5, N-(2-Benzo-1,3-dioxol-5-ylethyl)-(3S,4S)-3-amino-4-{(S)-2-[(S)-4-methyl-2-(3-methyl-butyrylamino)pentanoylamino]butyryl-amino}-5-phenylpentanamide], the IC50 in assay [1] is 1800 nM; in assay [2], 7.73 nM; in assay [3] it was above 30000 nM.

For the molecule `CC[C@H](C)[C@H](NC(=O)C[C@H](N)[C@H](Cc1ccccc1)NC(=O)[C@@H](NC(=O)Cc1cccc(OC(F)(F)F)c1)C(C)C)C(=O)N[C@H](C(=O)O)C(C)C` [Compound 32, (S)-2-[(2S,3S)-2-((3S,4S)-3-Amino-4-{(S)-3-methyl-2-[2-(3-trifluoromethoxyphenyl)-acetylamino]butyrylamino}-5-phenyl-pentanoylamino)-3-methylpentanoyl-amino]-3-methylbutyric acid], the concentration for half-maximal inhibition (IC50) in assay [1] is 12 nM; in assay [3], above 30000 nM.

Turning to `CC[C@H](C)[C@H](NC(=O)C[C@H](N)[C@H](Cc1ccccc1)NC(=O)[C@@H](NC(=O)COc1cccc2ccccc12)C(C)C)C(=O)N[C@H](C(=O)OC)C(C)C` [Compound 8, Methyl (S)-2-[(2S,3S)-2-((3S,4S)-3-amino-4-{(S)-3-methyl-2-[2-(naphthalen-1-yloxy)-acetylamino]butyrylamino}-5-phenyl-pentanoylamino)-3-methylpentanoyl-amino]-3-methylbutyrate], the IC50 in assay [1] was 200 nM; in assay [3] it was above 30000 nM.

For orientation: IC50 means the concentration at which inhibition is half-maximal.
